Laboratory results: patent US12247010B2, “Tubulin inhibitors” (LIN BIOSCIENCE PTY LTD., priority 2017, dated 2025)

System: U87MG cells
Assay: Cytotoxicity assay (cell viability, CellTiter 96 Aqueous MTS)
Assay type: cell-based
Details: Homo sapiens, U-87 MG, 72 h, 72 hours incubation, starting concentration 50 uM, 9 point half log dilution, average where tested repeatedly
Procedure: Example 3: Cytotoxicity Assay
U87MG cells were plated at a density of 7×10^3 cells/well and allowed to seed overnight. Cells were then treated with compounds from Table 1 or CMPD-1 (4-(2′-fluoro-[1,1′-biphenyl]-4-yl)-N-(4-hydroxyphenyl)butanamide as a positive control) were added to cells at a starting concentration of 50 uM, with a 9 point half log dilution, and incubated for 72 hours prior to viability determination. IC50 values were calculated from cell viability as measured using the CellTiter 96® Aqueous MTS reagent from Promega©, and the results are shown in Table 2.

Compound | IC50 [µM]
O=C(NCCCc1ccc(-c2ccccc2F)cc1)[C@H]1C[C@@H](O)C1 [Compound 77, (1s,3s)-N-(3-(2′-fluoro-[1,1′-biphenyl]-4-yl)propyl)-3-hydroxycyclobutane-1-carboxamide] | > 5
O=C(NCCCc1ccc(-c2ccccc2F)cc1)c1ccc2cn[nH]c2c1 [Compound 79, N-(3-(2′-fluoro-[1,1′-biphenyl]-4-yl)propyl)-1H-indazole-6-carboxamide] | > 5
Cc1cncc(C(=O)NCCCc2ccc(-c3ccccc3F)cc2)c1 [Compound 80, N-(3-(2′-fluoro-[1,1′-biphenyl]-4-yl)propyl)-5-methylnicotinamide] | 1 to 5
O=C(NCCCc1ccc(-c2ccccc2F)cc1)C1=CN2C=CNC2C=C1 (stereo not shown) [Compound 82, N-(3-(2′-fluoro-[1,1′-biphenyl]-4-yl)propyl)-1,8a-dihydroimidazo[1,2-a]pyridine-6-carboxamide] | > 5
O=C(NCCCc1ccc(-c2ccccc2F)cc1)c1ccc(C(F)(F)F)nc1 [Compound 83, N-(3-(2′-fluoro-[1,1′-biphenyl]-4-yl)propyl)-6-(trifluoromethyl)nicotinamide] | 1 to 5
O=C(NCCCc1ccc(-c2ccccc2F)cc1)c1nc2ccccc2[nH]1 [Compound 84, N-(3-(2′-fluoro-[1,1′-biphenyl]-4-yl)propyl)-1H-benzo[d]imidazole-2-carboxamide] | > 5
O=C(NCCCc1ccc(-c2ccccc2F)cc1)c1cncc(C(F)(F)F)c1 [Compound 85, N-(3-(2′-fluoro-[1,1′-biphenyl]-4-yl)propyl)-5-(trifluoromethyl)nicotinamide] | 1 to 5
CN1CCC(C(=O)NCCCc2ccc(-c3ccccc3F)cc2)CC1 [Compound 87, N-(3-(2′-fluoro-[1,1′-biphenyl]-4-yl)propyl)-1-methylpiperidine-4-carboxamide] | > 5
Cn1cnc(C(=O)NCCCc2ccc(-c3ccccc3F)cc2)c1 [Compound 88, N-(3-(2′-fluoro-[1,1′-biphenyl]-4-yl)propyl)-1-methyl-1H-imidazole-4-carboxamide] | > 5
Cc1cc(C(=O)NCCCc2ccc(-c3ccccc3F)cc2)n(C)n1 [Compound 89, N-(3-(2′-fluoro-[1,1′-biphenyl]-4-yl)propyl)-1,3-dimethyl-1H-pyrazole-5-carboxamide] | < 0.5
Cc1cc(C(=O)NCCCc2ccc(-c3ccccc3F)cc2)no1 [Compound 90, N-(3-(2′-fluoro-[1,1′-biphenyl]-4-yl)propyl)-5-methylisoxazole-3-carboxamide] | < 0.5
O=C(NCCCc1ccc(-c2ccccc2F)cc1)c1ccc2c(c1)OCCO2 [Compound 91, N-(3-(2′-fluoro-[1,1′-biphenyl]-4-yl)propyl)-2,3-dihydrobenzo[b] [1,4]dioxine-6-carboxamide] | > 5
Cn1cnc2cc(C(=O)NCCCc3ccc(-c4ccccc4F)cc3)cnc21 [Compound 95, N-(3-(2′-fluoro-[1,1′-biphenyl]-4-yl)propyl)-3-methyl-3H-imidazo[4,5-b]pyridine-6-carboxamide] | < 0.5
Cc1ccc(C(=O)NCCCc2ccc(-c3ccccc3F)cc2)c(C)n1 [Compound 99, N-(3-(2′-fluoro-[1,1′-biphenyl]-4-yl)propyl)-2,6-dimethylnicotinamide] | 1 to 5
Cc1nc2cc(C(=O)NCCCc3ccc(-c4ccccc4F)cc3)ccc2[nH]1 [Compound 100, N-(3-(2′-fluoro-[1,1′-biphenyl]-4-yl)propyl)-2-methyl-1H-benzo[d]imidazole-5-carboxamide] | > 5
O=C(Cc1noc2ccccc12)NCCCc1ccc(-c2ccccc2F)cc1 [Compound 102, 2-(benzo[d]isoxazol-3-yl)-N-(3-(2′-fluoro-[1,1′-biphenyl]-4-yl)propyl)acetamide] | > 5
Nc1ccc(C(=O)NCCCc2ccc(-c3ccccc3F)cc2)cn1 [Compound 105, 6-amino-N-(3-(2′-fluoro-[1,1′-biphenyl]-4-yl)propyl)nicotinamide] | < 0.5
Cn1nccc1C(=O)NCCCc1ccc(-c2ccccc2F)cc1 [Compound 106, N-(3-(2′-fluoro-[1,1′-biphenyl]-4-yl)propyl)-1-methyl-1H-pyrazole-5-carboxamide] | 0.501 to 1
O=C(NCCCc1ccc(-c2ccccc2F)cc1)C(F)(F)c1ccccc1 [Compound 108, 2,2-difluoro-N-(3-(2′-fluoro-[1,1′-biphenyl]-4-yl)propyl)-2-phenylacetamide] | < 0.5
CCn1nc(C)cc1C(=O)NCCCc1ccc(-c2ccccc2F)cc1 [Compound 109, 1-ethyl-N-(3-(2′-fluoro-[1,1′-biphenyl]-4-yl)propyl)-3-methyl-1H-pyrazole-5-carboxamide] | 0.501 to 1
COc1ccc(CC(=O)NCCCc2ccc(-c3ccccc3F)cc2)cc1OC [Compound 110, 2-(3,4-dimethoxyphenyl)-N-(3-(2′-fluoro-[1,1′-biphenyl]-4-yl)propyl)acetamide] | > 5
O=C(NCCCc1ccc(-c2ccccc2F)cc1)c1ccno1 [Compound 111, N-(3-(2′-fluoro-[1,1′-biphenyl]-4-yl)propyl)isoxazole-5-carboxamide] | > 5

Compound | IC50 [µM]
CCOc1ccc(CC(=O)NCCCc2ccc(-c3ccccc3F)cc2)cc1 [Compound 112, 2-(4-ethoxyphenyl)-N-(3-(2′-fluoro-[1,1′-biphenyl]-4-yl)propyl)acetamide] | 1 to 5
O=C(NCCCc1ccc(-c2ccccc2F)cc1)c1cc[nH]n1 [Compound 113, N-(3-(2′-fluoro-[1,1′-biphenyl]-4-yl)propyl)-1H-pyrazole-3-carboxamide] | > 5
COc1ccc(CC(=O)NCCCc2ccc(-c3ccccc3F)cc2)c(OC)c1 [Compound 114, 2-(2,4-dimethoxyphenyl)-N-(3-(2′-fluoro-[1,1′-biphenyl]-4-yl)propyl)acetamide] | > 5
O=C(NCCCc1ccc(-c2ccccc2F)cc1)c1c[nH]c2ccccc12 [Compound 117, N-(3-(2′-fluoro-[1,1′-biphenyl]-4-yl)propyl)-1H-indole-3-carboxamide] | > 5
O=C(NCCCc1ccc(-c2ccccc2F)cc1)c1cc[nH]c1 [Compound 118, N-(3-(2′-fluoro-[1,1′-biphenyl]-4-yl)propyl)-1H-pyrrole-3-carboxamide] | > 5
O=C(Cc1ccc(OC(F)(F)F)cc1)NCCCc1ccc(-c2ccccc2F)cc1 [Compound 120, N-(3-(2′-fluoro-[1,1′-biphenyl]-4-yl)propyl)-2-(4-(trifluoromethoxy)phenyl)acetamide] | 0.501 to 1
CC(=O)Nc1ccc(C(=O)NCCCc2ccc(-c3ccccc3F)cc2)cn1 [Compound 121, 6-acetamido-N-(3-(2′-fluoro-[1,1′-biphenyl]-4-yl)propyl)nicotinamide] | 1 to 5
O=C(NCCCc1ccc(-c2ccccc2F)cc1)c1ccc2nccnc2c1 [Compound 123, N-(3-(2′-fluoro-[1,1′-biphenyl]-4-yl)propyl)quinoxaline-6-carboxamide] | > 5
O=C(Cn1ccnc1)NCCCc1ccc(-c2ccccc2F)cc1 [Compound 124, N-(3-(2′-fluoro-[1,1′-biphenyl]-4-yl)propyl)-2-(1H-imidazol-1-yl)acetamide] | > 5
Cc1cc(C(=O)NCCCc2ccc(-c3ccccc3F)cc2)nn1C [Compound 125, N-(3-(2′-fluoro-[1,1′-biphenyl]-4-yl)propyl)-1,5-dimethyl-1H-pyrazole-3-carboxamide] | > 5
COc1ccc(CC(=O)NCCCc2ccc(-c3ccccc3F)cc2)cc1F [Compound 126, 2-(3-fluoro-4-methoxyphenyl)-N-(3-(2′-fluoro-[1,1′-biphenyl]-4-yl)propyl)acetamide] | 1 to 5
Cc1cc(C(=O)NCCCc2ccc(-c3ccccc3F)cc2)cc(C)c1O [Compound 127, N-(3-(2′-fluoro-[1,1′-biphenyl]-4-yl)propyl)-4-hydroxy-3,5-dimethylbenzamide] | > 5
Cc1cc(C(=O)NCCCc2ccc(-c3ccccc3F)cc2)on1 [Compound 128, N-(3-(2′-fluoro-[1,1′-biphenyl]-4-yl)propyl)-3-methylisoxazole-5-carboxamide] | 0.501 to 1
Cn1cncc1C(=O)NCCCc1ccc(-c2ccccc2F)cc1 [Compound 130, N-(3-(2′-fluoro-[1,1′-biphenyl]-4-yl)propyl)-1-methyl-1H-imidazole-5-carboxamide] | > 5
O=C(NCCCc1ccc(-c2ccccc2F)cc1)c1cnco1 [Compound 131, N-(3-(2′-fluoro-[1,1′-biphenyl]-4-yl)propyl)oxazole-5-carboxamide] | > 5
Cc1cnc(C(=O)NCCCc2ccc(-c3ccccc3F)cc2)s1 [Compound 132, N-(3-(2′-fluoro-[1,1′-biphenyl]-4-yl)propyl)-5-methylthiazole-2-carboxamide] | > 5
Cc1nn(C)cc1C(=O)NCCCc1ccc(-c2ccccc2F)cc1 [Compound 133, N-(3-(2′-fluoro-[1,1′-biphenyl]-4-yl)propyl)-1,3-dimethyl-1H-pyrazole-4-carboxamide] | > 5
O=C(NCCCc1ccc(-c2ccccc2F)cc1)c1ccc[nH]1 [Compound 134, N-(3-(2′-fluoro-[1,1′-biphenyl]-4-yl)propyl)-1H-pyrrole-2-carboxamide] | 1 to 5
O=C(NCCCc1ccc(-c2ccccc2F)cc1)c1cnc2ccccn12 [Compound 137, N-(3-(2′-fluoro-[1,1′-biphenyl]-4-yl)propyl)imidazo[1,2-a]pyridine-3-carboxamide] | 1 to 5
Cc1cc(C(=O)NCCCc2ccc(-c3ccccc3F)cc2)[nH]n1 [Compound 139, N-(3-(2′-fluoro-[1,1′-biphenyl]-4-yl)propyl)-3-methyl-1H-pyrazole-5-carboxamide] | 0.501 to 1
Cc1ccc(CC(=O)NCCCc2ccc(-c3ccccc3F)cc2)cc1 [Compound 140, N-(3-(2′-fluoro-[1,1′-biphenyl]-4-yl)propyl)-2-(p-tolyl)acetamide] | < 0.5
